The values that follow come from patent US20260226068A1, “IMIDAZOTRIAZINE IL-17A MODULATORS AND USES THEREOF” (DICE ALPHA, INC., priority 2023, published 2026).

SMILES strings stand for the structures. Where only a bound is given, the exact number is not on record here.

For test [1], the target named is T1, IL-17A/F (Homo sapiens, UniProt Q16552+Q96PD4).
T1 construct: purchased R&D Systems
T1 sequence (Q16552 24-155): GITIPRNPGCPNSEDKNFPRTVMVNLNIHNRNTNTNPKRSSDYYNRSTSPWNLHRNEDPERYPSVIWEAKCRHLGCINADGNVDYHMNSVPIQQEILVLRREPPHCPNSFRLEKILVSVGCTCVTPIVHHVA
T1 sequence (Q96PD4 31-163): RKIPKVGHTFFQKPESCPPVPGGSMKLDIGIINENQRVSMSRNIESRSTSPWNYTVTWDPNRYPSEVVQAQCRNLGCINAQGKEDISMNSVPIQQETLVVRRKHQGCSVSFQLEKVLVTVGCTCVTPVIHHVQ
Kind of test: IL-17A/F HEK-Blue cell assay (SEAP reporter). Format: cell-based. The settings on record: HEK-Blue IL-17A reporter cells, IL17A/F 5 ng/mL, 20 hours, SEAP read at A630; read-out: HEK-Blue IL17AF (IC50 for IL-17A/F inhibition).

In test [2] the target is T2, IL-17A/A (Homo sapiens, UniProt Q16552).
T2 construct: purchased Genscript Z03228
T2 sequence (Q16552 24-155): T1 sequence (Q16552 24-155)
Kind of test: IL-17A/A HEK-Blue cell assay (SEAP reporter). Format: cell-based. The settings on record: HEK-Blue IL-17A reporter cells, IL17A/A 5 ng/mL, 20 hours, SEAP read at A630; read-out: HEK-Blue IL17AA (IC50 for IL-17A/A inhibition).

`Cn1nccc1C(=O)N[C@H](c1cn2nc(C[C@H]3C[C@@H](C(F)(F)F)CNC3=O)c(C3CCOCC3)nc2n1)C1CCC(F)(F)CC1` [Compound 150, N-((1S)-(4,4-difluorocyclohexyl)(2-(((3R,5R)-2-oxo-5-(trifluoromethyl)piperidin-3-yl)methyl)-3-(tetrahydro-2H-pyran-4-yl)imidazo[1,2-b][1,2,4]triazin-6-yl)methyl)-1-methyl-1H-pyrazole-5-carboxamide]: the figures for the IC50 in test [1] and in test [2] were 100 to 1000 nM and below 100 nM, respectively.
Take `CCn1nccc1C(=O)N[C@H](c1cn2nc(C[C@H]3C[C@@H](C(F)(F)F)NC3=O)c(C3CCOCC3)nc2n1)C1CCC(F)(F)CC1` [Compound 151, N—((S)-(4,4-difluorocyclohexyl)(2-(((3R,5S)-2-oxo-5-(trifluoromethyl)pyrrolidin-3-yl)methyl)-3-(tetrahydro-2H-pyran-4-yl)imidazo[1,2-b][1,2,4]triazin-6-yl)methyl)-1-ethyl-1H-pyrazole-5-carboxamide]: the figures for the IC50 in test [1] and in test [2] were 100 to 1000 nM and below 100 nM, respectively.
Consider `CCn1nccc1C(=O)N[C@H](c1cn2nc(C[C@H]3C[C@@H](C(F)(F)F)NC3=O)c(C3CCOCC3)nc2n1)[C@H]1CC[C@H](C)CC1` [Compound 152, 1-ethyl-N—((S)-((1R,4S)-4-methylcyclohexyl)(2-(((3R,5S)-2-oxo-5-(trifluoromethyl)pyrrolidin-3-yl)methyl)-3-(tetrahydro-2H-pyran-4-yl)imidazo[1,2-b][1,2,4]triazin-6-yl)methyl)-1H-pyrazole-5-carboxamide], for which the IC50 is 100 to 1000 nM in test [1] and below 100 nM in test [2].
As for `O=C(N[C@H](c1cn2nc(C[C@H]3C[C@@H](C(F)(F)F)CNC3=O)c(C3CCOCC3)nc2n1)C1CCC(F)(F)CC1)c1ccn[nH]1` [Compound 154, N-((1S)-(4,4-difluorocyclohexyl)(2-(((3R,5R)-2-oxo-5-(trifluoromethyl)piperidin-3-yl)methyl)-3-(tetrahydro-2H-pyran-4-yl)imidazo[1,2-b][1,2,4]triazin-6-yl)methyl)-1H-pyrazole-5-carboxamide], the IC50 in test [1] is above 1000 nM; in test [2], below 100 nM.
Taken in the same sequence, the figures for `CCn1nccc1C(=O)N[C@H](c1cn2nc(C[C@H]3C[C@H](C(F)(F)F)CNC3=O)c(C3CCOCC3)nc2n1)[C@H]1CC[C@H](C)CC1` [Compound 155, 1-ethyl-N-((1S)-((1r,4S)-4-methylcyclohexyl)(2-(((3R,5S)-2-oxo-5-(trifluoromethyl)piperidin-3-yl)methyl)-3-(tetrahydro-2H-pyran-4-yl)imidazo[1,2-b][1,2,4]triazin-6-yl)methyl)-1H-pyrazole-5-carboxamide] were 100 to 1000 nM and below 100 nM.
The corresponding values for `CCn1nccc1C(=O)N[C@H](c1cn2nc(C[C@H]3C[C@H](C(F)(F)F)CNC3=O)c(C(C)(C)C)nc2n1)C1CCC(F)(F)CC1` [Compound 156, N-((1S)-(4,4-difluorocyclohexyl)(3-(tert-butyl)-2-(((3R,5S)-2-oxo-5-(trifluoromethyl)piperidin-3-yl)methyl)imidazo[1,2-b][1,2,4]triazin-6-yl)methyl)-1-ethyl-1H-pyrazole-5-carboxamide] are above 1000 nM and below 100 nM.
The corresponding values for `CCn1nccc1C(=O)N[C@H](c1cn2nc(C[C@H]3C[C@@H](C(F)(F)F)CNC3=O)c(N3CCO[C@H](C)C3)nc2n1)[C@H]1CC[C@H](C)CC1` [Compound 157, 1-ethyl-N—((S)-((1r,4S)-4-methylcyclohexyl)(3-((R)-2-methylmorpholino)-2-(((3R,5R)-2-oxo-5-(trifluoromethyl)piperidin-3-yl)methyl)imidazo[1,2-b][1,2,4]triazin-6-yl)methyl)-1H-pyrazole-5-carboxamide] are below 100 nM and below 100 nM.
